Patent US12655116B2, “Substituted isophthalic acid diamides” (Bayer Aktiengesellschaft, priority 2020, dated 2026)

Legend:
ABUTH [1] = assay: Pre-emergence herbicidal action against ABUTH; format: in vivo, Abutilon theophrasti; details: Abutilon theophrasti, 504 h
Procedure, shortened: (§1)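 Greenhouse pots of sandy loam held seeds covered with soil, onto which the compound was applied before emergence. An aqueous suspension or emulsion of WP or EC was used at 600 to 800 l/ha with 0.2% wetting agent. Percent damage was judged visually at 3 weeks.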

ALOMY [2] = assay: Pre-emergence herbicidal action against ALOMY; format: in vivo, Alopecurus myosuroides; details: Alopecurus myosuroides, 504 h, pre-emergence
Procedure, shortened: as §1

AMARE [3] = assay: Pre-emergence herbicidal action against AMARE; format: in vivo, Amaranthus retroflexus; details: Amaranthus retroflexus, 504 h, scored visually after 3 weeks vs untreated controls, 100% = plants have died, 0% = like control plants
Procedure, shortened: as §1

AVEFA = assay: Pre-emergence herbicidal action against AVEFA; format: in vivo, Avena fatua; details: Avena fatua, 504 h; 80 g/ha, pre-emergence
Procedure, shortened: as §1

ECHCG [4] = assay: Pre-emergence herbicidal action against ECHCG; format: in vivo, Echinochloa crus-galli; details: Echinochloa crus-galli, 504 h, 80 g/ha
Procedure, shortened: as §1

MATIN [5] = assay: Pre-emergence herbicidal action against MATIN; format: in vivo, Matricaria inodora; details: Tripleurospermum inodorum, 504 h
Procedure, shortened: as §1

PHBPU [6] = assay: Pre-emergence herbicidal action against PHBPU; format: in vivo, Pharbitis purpurea; details: Ipomoea purpurea, 504 h, dosage 80 g/ha
Procedure, shortened: as §1

POLCO = assay: Pre-emergence herbicidal action against POLCO; format: in vivo, Polygonum convolvulus; details: Fallopia convolvulus, 504 h
Procedure, shortened: as §1

SETVI [7] = assay: Pre-emergence herbicidal action against SETVI; format: in vivo, Setaria viridis; details: Setaria viridis, 504 h, dosage 80 g/ha
Procedure, shortened: as §1

VERPE [8] = assay: Pre-emergence herbicidal action against VERPE; format: in vivo, Veronica persica; details: Veronica persica, 504 h, dosage 80 g/ha
Procedure, shortened: as §1

VIOTR [9] = assay: Pre-emergence herbicidal action against VIOTR; format: in vivo, Viola tricolor; details: Viola tricolor, 504 h
Procedure, shortened: as §1

DIGSA [10] = assay: Pre-emergence herbicidal action against DIGSA; format: in vivo, Digitaria sanguinalis; details: Digitaria sanguinalis, 504 h
Procedure, shortened: as §1

ABUTH [11] = assay: Post-emergence herbicidal action against ABUTH; format: in vivo, Abutilon theophrasti; details: Abutilon theophrasti, 504 h, visual assessment about 3 weeks after treatment vs untreated controls
Procedure, shortened: (§2)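 A WP or EC formulation diluted in water with 0.2% wetting agent was sprayed at 600 to 800 l/ha onto one-leaf-stage plants grown in sandy loam. About 3 weeks later, action was rated visually in percent, 100% being dead plants.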

ALOMY [12] = assay: Post-emergence herbicidal action against ALOMY; format: in vivo, Alopecurus myosuroides; details: Alopecurus myosuroides, 504 h, dosage 20 g/ha, visual assessment about 3 weeks after treatment vs untreated controls
Procedure, shortened: as §2

AMARE [13] = assay: Post-emergence herbicidal action against AMARE; format: in vivo, Amaranthus retroflexus; details: Amaranthus retroflexus, 504 h, 20 g/ha, visual assessment about 3 weeks after treatment, 100% = plants have died, 0% = like control plants
Procedure, shortened: as §2

ECHCG [14] = assay: Post-emergence herbicidal action against ECHCG; format: in vivo, Echinochloa crus-galli; details: Echinochloa crus-galli, 504 h, dosage 20 g/ha
Procedure, shortened: as §2

MATIN [15] = assay: Post-emergence herbicidal action against MATIN; format: in vivo, Matricaria inodora; details: Tripleurospermum inodorum, 504 h
Procedure, shortened: as §2

PHBPU [16] = assay: Post-emergence herbicidal action against PHBPU; format: in vivo, Pharbitis purpurea; details: Ipomoea purpurea, 504 h
Procedure, shortened: as §2

SETVI [17] = assay: Post-emergence herbicidal action against SETVI; format: in vivo, Setaria viridis; details: Setaria viridis, 504 h
Procedure, shortened: as §2

VERPE [18] = assay: Post-emergence herbicidal action against VERPE; format: in vivo, Veronica persica; details: Veronica persica, 504 h, 20 g/ha
Procedure, shortened: as §2

VIOTR [19] = assay: Post-emergence herbicidal action against VIOTR; format: in vivo, Viola tricolor; details: Viola tricolor, 504 h
Procedure, shortened: as §2

DIGSA [20] = assay: Post-emergence herbicidal action against DIGSA; format: in vivo, Digitaria sanguinalis; details: Digitaria sanguinalis, 504 h
Procedure, shortened: as §2

[21] = 80 g/ha, scored visually after 3 weeks vs untreated controls (100% = plants have died, 0% = like control plants)

Structure (SMILES): CCNC(=O)c1c(C(F)F)ccc(C(=O)Nc2nnnn2CC)c1CC [Example 2-278]
- pest or weed control at 80 g/ha (ABUTH [1]; [21]): 100%
- pest or weed control at 20 g/ha (ABUTH [1]; dosage 20 g/ha, scored visually after 3 weeks vs untreated controls, 100% = plants have died, 0% = like control plants, read-out: Pre-emergence action against ABUTH (herbicidal activity in percent)): 100%
- pest or weed control at 80 g/ha (ALOMY [2]; [21]): 90%
- pest or weed control at 20 g/ha (ALOMY [2]; 20 g/ha, scored visually after 3 weeks, 100% = plants have died, 0% = like control plants): 80%
- pest or weed control at 20 g/ha (AMARE [3]; 20 g/ha): 100%
- pest or weed control at 80 g/ha (AMARE [3]; 80 g/ha): 100%
- pest or weed control at 80 g/ha (AVEFA): 90%
- pest or weed control at 80 g/ha (ECHCG [4]): 100%
- pest or weed control at 20 g/ha (MATIN [5]; dosage 20 g/ha): 100%
- pest or weed control at 80 g/ha (MATIN [5]; dosage 80 g/ha): 100%
- pest or weed control at 80 g/ha (PHBPU [6]): 90%
- pest or weed control at 20 g/ha (POLCO; dosage 20 g/ha): 80%
- pest or weed control at 80 g/ha (POLCO; dosage 80 g/ha): 80%
- pest or weed control at 80 g/ha (SETVI [7]): 100%
- pest or weed control at 80 g/ha (VERPE [8]): 100%
- pest or weed control at 20 g/ha (VIOTR [9]; dosage 20 g/ha): 100%
- pest or weed control at 80 g/ha (VIOTR [9]; dosage 80 g/ha): 100%
- pest or weed control at 20 g/ha (DIGSA [10]; dosage 20 g/ha): 100%
- pest or weed control at 80 g/ha (DIGSA [10]; dosage 80 g/ha): 100%
- pest or weed control at 5 g/ha (ABUTH [11]; dosage 5 g/ha): 80%
- pest or weed control at 20 g/ha (ABUTH [11]; dosage 20 g/ha): 90%
- pest or weed control at 20 g/ha (ALOMY [12]): 80%
- pest or weed control at 20 g/ha (AMARE [13]): 100%
- pest or weed control at 20 g/ha (ECHCG [14]): 90%
- pest or weed control at 5 g/ha (MATIN [15]; dosage 5 g/ha): 90%
- pest or weed control at 20 g/ha (MATIN [15]; dosage 20 g/ha): 90%
- pest or weed control at 5 g/ha (PHBPU [16]; dosage 5 g/ha): 80%
- pest or weed control at 20 g/ha (PHBPU [16]; dosage 20 g/ha): 90%
- pest or weed control at 5 g/ha (SETVI [17]; dosage 5 g/ha): 80%
- pest or weed control at 20 g/ha (SETVI [17]; dosage 20 g/ha): 90%
- pest or weed control at 20 g/ha (VERPE [18]): 100%
- pest or weed control at 5 g/ha (VIOTR [19]; 5 g/ha): 90%
- pest or weed control at 20 g/ha (VIOTR [19]; 20 g/ha): 90%
- pest or weed control at 5 g/ha (DIGSA [20]; 5 g/ha): 90%
- pest or weed control at 20 g/ha (DIGSA [20]; 20 g/ha): 90%
